Source: the NIST ThermoML archive (doi:10.1021/je034102r)

How the values were obtained:
[1] = Molar enthalpy of transition or fusion; details: Crystal
[2] = for mass density: 101.33 kPa, Liquid, Pycnometric method

CCCCn1cc[n+](C)c1.F[P-](F)(F)(F)(F)F [1-butyl-3-methylimidazolium hexafluorophosphate]
Details | Molar enthalpy of transition or fusion [kcal/mol]
[1] | 4.685

[2]
Details | Triple point temperature [K] | mass density [kg/m3]
298.23 K | – | 1365.95
302.89 K | – | 1362.05
307.9 K | – | 1357.94
312.67 K | – | 1353.99
317.58 K | – | 1349.92
322.33 K | – | 1346.02
327.16 K | – | 1342.02
344.23 K | – | 1328.03
348.93 K | – | 1324.35
353.47 K | – | 1320.69
Crystal | 283.51 | –

Details | Glass transition temperature [°C]
[2], Glass, Adiabatic calorimetry | -82.5
